Reference: patent publication US20020137929A1, “1 - (3-heterocyclylphenyl) isothiourea, -isourea, -guanidine and -amidine herbicidal agents” (Intellectual Property Department, BASF Aktiengesellschaft, priority 1998, published 2002)

Key:
[1] = system: ZEAMX (Corn, Field); test: Postemergence herbicidal evaluation; assay type: in vivo, Zea mays; conditions: for ZEAMX herbicidal rating: postemergence
Outline: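 Visual 0-9 injury score (stand, vigor, malformation, size, chlorosis, appearance vs untreated) taken four to five weeks post-spray, averaged across repeat tests. Test plants about two weeks old; foliar spray of acetone/water (1:1) with 0.5% surfactant delivering ~0.0156-0.500 kg active/ha.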

[2] = system: ABUTH (Velvetleaf); test: Preemergence herbicidal evaluation; assay type: in vivo, Abutilon theophrasti; conditions: rated 4-5 weeks after treatment
Outline: (§1)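 Greenhouse preemergence test: seed-soil mix sown on ~1 inch soil; aqueous acetone spray at equivalent of ~0.0156–0.500 kg/ha; greenhouse-held and watered; scored 0–9 visually at 4–5 weeks.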

[3] = system: AMBEL (Ragweed, Common); test: Preemergence herbicidal evaluation; assay type: in vivo, Ambrosia artemisifolia; conditions: rated 4-5 weeks after treatment
Outline: as §1

[4] = system: GLXMAW (Soybean, Williams); test: Preemergence herbicidal evaluation; assay type: in vivo, Glycine max, (L.) Merr. cv Williams; conditions: rated 4-5 weeks after treatment
Outline: as §1

[5] = system: MOOVA (Monochoria); test: Postemergence weed control under flooded paddy conditions; assay type: in vivo, Monochoria vaginalis; conditions: postemergence weeds, 3-4 weeks after treatment
Outline: (§2)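 With weeds 3 to 5 cm tall and rice at the 1.5 to 2.5 leaf stage, containers were flooded and water held 1.5 to 3 cm above soil. Compounds in 50/50 v/v aqueous/acetone went into the flood water at about 0.0313 to 0.500 kg/ha a.i. Effects were visually rated 0–9 against controls after three to four weeks in the greenhouse.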

[6] = system: SAGPY (Arrowhead (Pygmaea)); test: as above; assay type: in vivo, Sagittaria pygmaea; conditions: postemergence weeds, 3-4 weeks after treatment
Outline: as §2

CCOC(=O)CN1C(=O)CO/C1=N/c1cc(-n2c(=O)cc(C(F)(F)F)n(C)c2=O)c(F)cc1Cl [Compound 22, Ethyl 2-{{2-chloro-5-[3,6-dihydro-3-methyl-2,6-dioxo-4-(trifluoromethyl)-1(2H)-pyrimidinyl]-4-fluorophenyl}imino}-4-oxo-3-oxazolidineacetate]
4.0: Herbicidal rating SAGPY ([6]; rate 0.1160 kg/ha) | Herbicidal rating SAGPY ([6]; rate 0.2310 kg/ha)
0.0: AMBEL preemergence herbicidal rating ([3]; rate 0.0156 kg/ha) | GLXMAW preemergence herbicidal rating ([4]; rate 0.0156 kg/ha) | GLXMAW preemergence herbicidal rating ([4]; rate 0.0313 kg/ha)
9.0: ABUTH preemergence herbicidal rating ([2]; rate 0.0156 kg/ha) | ABUTH preemergence herbicidal rating ([2]; rate 0.0313 kg/ha) | ABUTH preemergence herbicidal rating ([2]; rate 0.0625 kg/ha) | ABUTH preemergence herbicidal rating ([2]; rate 0.1250 kg/ha) | ABUTH preemergence herbicidal rating ([2]; rate 0.2500 kg/ha) | AMBEL preemergence herbicidal rating ([3]; rate 0.1250 kg/ha) | AMBEL preemergence herbicidal rating ([3]; rate 0.2500 kg/ha) | GLXMAW preemergence herbicidal rating ([4]; rate 0.2500 kg/ha) | Herbicidal rating MOOVA ([5]; rate 0.1160 kg/ha) | Herbicidal rating MOOVA ([5]; rate 0.2310 kg/ha) | Herbicidal rating MOOVA ([5]; rate 0.4630 kg/ha)
5.0: AMBEL preemergence herbicidal rating ([3]; rate 0.0313 kg/ha) | Herbicidal rating SAGPY ([6]; rate 0.4630 kg/ha)
7.0: ZEAMX herbicidal rating ([1]; rate 0.0158 kg/ha) | AMBEL preemergence herbicidal rating ([3]; rate 0.0625 kg/ha) | GLXMAW preemergence herbicidal rating ([4]; rate 0.1250 kg/ha)
3.0: GLXMAW preemergence herbicidal rating ([4]; rate 0.0625 kg/ha)
7.5: ZEAMX herbicidal rating ([1]; rate 0.0315 kg/ha) | ZEAMX herbicidal rating ([1]; rate 0.0630 kg/ha)

CN(C)N1C(=O)CSC1=Nc1cc(-n2c(=O)cc(C(F)(F)F)n(C)c2=O)c(F)cc1Cl [Compound 23, 3-{4-Chloro-5-{[3-(dimethylamino)-4-oxo-2-thiazolidinylidine]amino}-2-fluorophenyl}-1-methyl-6-(trifluoromethyl)-2,4(1H,3H)-pyrimidinedione]
2.0: GLXMAW preemergence herbicidal rating ([4]; rate 0.0625 kg/ha)
7.0: AMBEL preemergence herbicidal rating ([3]; rate 0.2500 kg/ha) | GLXMAW preemergence herbicidal rating ([4]; rate 0.2500 kg/ha)
5.0: ZEAMX herbicidal rating ([1]; rate 0.0630 kg/ha)
3.5: ZEAMX herbicidal rating ([1]; rate 0.0315 kg/ha)
3.0: ZEAMX herbicidal rating ([1]; rate 0.0158 kg/ha) | AMBEL preemergence herbicidal rating ([3]; rate 0.0625 kg/ha) | Herbicidal rating SAGPY ([6]; rate 0.4630 kg/ha)
6.0: AMBEL preemergence herbicidal rating ([3]; rate 0.1250 kg/ha) | GLXMAW preemergence herbicidal rating ([4]; rate 0.1250 kg/ha)
1.0: ABUTH preemergence herbicidal rating ([2]; rate 0.0313 kg/ha)
9.0: ABUTH preemergence herbicidal rating ([2]; rate 0.0625 kg/ha) | ABUTH preemergence herbicidal rating ([2]; rate 0.1250 kg/ha) | ABUTH preemergence herbicidal rating ([2]; rate 0.2500 kg/ha) | Herbicidal rating MOOVA ([5]; rate 0.1160 kg/ha) | Herbicidal rating MOOVA ([5]; rate 0.2310 kg/ha) | Herbicidal rating MOOVA ([5]; rate 0.4630 kg/ha)
0.0: ABUTH preemergence herbicidal rating ([2]; rate 0.0156 kg/ha) | AMBEL preemergence herbicidal rating ([3]; rate 0.0156 kg/ha) | AMBEL preemergence herbicidal rating ([3]; rate 0.0313 kg/ha) | GLXMAW preemergence herbicidal rating ([4]; rate 0.0156 kg/ha) | GLXMAW preemergence herbicidal rating ([4]; rate 0.0313 kg/ha) | Herbicidal rating SAGPY ([6]; rate 0.1160 kg/ha) | Herbicidal rating SAGPY ([6]; rate 0.2310 kg/ha)

CCOC(=O)CN1C(=O)CN(C)C1=Nc1cc(-n2c(=O)cc(C(F)(F)F)n(C)c2=O)c(F)cc1Cl [Compound 25, Ethyl 2-{{2-chloro-5-[3,6-dihydro-3-methyl-2,6-dioxo-4-(trifluoromethyl)-1(2H)-pyrimidinyl]-4-fluorophenyl}imino}-3-methyl-5-oxo-1-imidazolidineacetate]
5.5: ZEAMX herbicidal rating ([1]; rate 0.0313 kg/ha)
7.0: ZEAMX herbicidal rating ([1]; rate 0.0625 kg/ha)
3.5: ZEAMX herbicidal rating ([1]; rate 0.0156 kg/ha)
2.0: Preemergence herbicidal rating AMBEL ([3]; rate 0.0313 kg/ha) | GLXMAW preemergence herbicidal rating ([4]; rate 0.0625 kg/ha)
0.0: Preemergence herbicidal rating AMBEL ([3]; rate 0.0156 kg/ha) | Preemergence herbicidal rating GLXMAW ([4]; rate 0.0156 kg/ha) | Preemergence herbicidal rating GLXMAW ([4]; rate 0.0313 kg/ha) | Herbicidal rating SAGPY ([6]; rate 0.0313 kg/ha) | Herbicidal rating SAGPY ([6]; rate 0.0625 kg/ha)
5.0: Herbicidal rating SAGPY ([6]; rate 0.1250 kg/ha) | Herbicidal rating SAGPY ([6]; rate 0.2500 kg/ha)
6.0: GLXMAW preemergence herbicidal rating ([4]; rate 0.2500 kg/ha)
3.0: GLXMAW preemergence herbicidal rating ([4]; rate 0.1250 kg/ha)
9.0: Preemergence herbicidal rating ABUTH ([2]; rate 0.0156 kg/ha) | Preemergence herbicidal rating ABUTH ([2]; rate 0.0313 kg/ha) | ABUTH preemergence herbicidal rating ([2]; rate 0.0625 kg/ha) | ABUTH preemergence herbicidal rating ([2]; rate 0.1250 kg/ha) | ABUTH preemergence herbicidal rating ([2]; rate 0.2500 kg/ha) | AMBEL preemergence herbicidal rating ([3]; rate 0.0625 kg/ha) | AMBEL preemergence herbicidal rating ([3]; rate 0.1250 kg/ha) | AMBEL preemergence herbicidal rating ([3]; rate 0.2500 kg/ha) | Herbicidal rating MOOVA ([5]; rate 0.0313 kg/ha) | Herbicidal rating MOOVA ([5]; rate 0.0625 kg/ha) | Herbicidal rating MOOVA ([5]; rate 0.1250 kg/ha) | Herbicidal rating MOOVA ([5]; rate 0.2500 kg/ha)

Cn1c(C(F)(F)F)cc(=O)n(-c2cc(N=C3SCC(=O)N3Cc3ccccc3)c(Cl)cc2F)c1=O [Compound 26]
1.0: Preemergence herbicidal rating GLXMAW ([4]; rate 0.2500 kg/ha)
0.0: Preemergence herbicidal rating ABUTH ([2]; rate 0.0156 kg/ha) | Preemergence herbicidal rating ABUTH ([2]; rate 0.0313 kg/ha) | Preemergence herbicidal rating ABUTH ([2]; rate 0.0625 kg/ha) | Preemergence herbicidal rating AMBEL ([3]; rate 0.0156 kg/ha) | Preemergence herbicidal rating AMBEL ([3]; rate 0.0313 kg/ha) | Preemergence herbicidal rating AMBEL ([3]; rate 0.0625 kg/ha) | Preemergence herbicidal rating GLXMAW ([4]; rate 0.0156 kg/ha) | Preemergence herbicidal rating GLXMAW ([4]; rate 0.0313 kg/ha) | Preemergence herbicidal rating GLXMAW ([4]; rate 0.0625 kg/ha) | Preemergence herbicidal rating GLXMAW ([4]; rate 0.1250 kg/ha) | Herbicidal rating SAGPY ([6]; rate 0.0313 kg/ha)
6.0: Preemergence herbicidal rating ABUTH ([2]; rate 0.1250 kg/ha)
5.0: Preemergence herbicidal rating AMBEL ([3]; rate 0.1250 kg/ha) | Preemergence herbicidal rating AMBEL ([3]; rate 0.2500 kg/ha) | Herbicidal rating SAGPY ([6]; rate 0.1250 kg/ha)
4.0: Herbicidal rating SAGPY ([6]; rate 0.0625 kg/ha)
9.0: Preemergence herbicidal rating ABUTH ([2]; rate 0.2500 kg/ha) | Herbicidal rating MOOVA ([5]; rate 0.0313 kg/ha) | Herbicidal rating MOOVA ([5]; rate 0.0625 kg/ha) | Herbicidal rating MOOVA ([5]; rate 0.1250 kg/ha) | Herbicidal rating MOOVA ([5]; rate 0.2500 kg/ha)
7.0: Herbicidal rating SAGPY ([6]; rate 0.2500 kg/ha)
3.5: ZEAMX herbicidal rating ([1]; rate 0.0156 kg/ha)
5.5: ZEAMX herbicidal rating ([1]; rate 0.0625 kg/ha)
4.5: ZEAMX herbicidal rating ([1]; rate 0.0313 kg/ha)

COC(=O)CCCN1C(=O)CSC1=Nc1cc(-n2c(=O)cc(C(F)(F)F)n(C)c2=O)c(F)cc1Cl [Compound 29, Methyl 2-{{2-chloro-5-[3,6-dihydro-3-methyl-2,6-dioxo-4-(trifluoromethyl)-1(2H)-pyrimidinyl]-4-fluorophenyl}imino}-4-oxo-3-thiazolidinebutyrate]
2.0: Preemergence herbicidal rating GLXMAW ([4]; rate 0.2500 kg/ha)
0.0: Preemergence herbicidal rating AMBEL ([3]; rate 0.0625 kg/ha) | Preemergence herbicidal rating AMBEL ([3]; rate 0.1250 kg/ha) | Preemergence herbicidal rating AMBEL ([3]; rate 0.2500 kg/ha) | Preemergence herbicidal rating GLXMAW ([4]; rate 0.0625 kg/ha) | Preemergence herbicidal rating GLXMAW ([4]; rate 0.1250 kg/ha) | Herbicidal rating MOOVA ([5]; rate 0.0313 kg/ha) | Herbicidal rating MOOVA ([5]; rate 0.0625 kg/ha) | Herbicidal rating MOOVA ([5]; rate 0.1250 kg/ha) | Herbicidal rating MOOVA ([5]; rate 0.2500 kg/ha) | Herbicidal rating SAGPY ([6]; rate 0.0313 kg/ha) | Herbicidal rating SAGPY ([6]; rate 0.0625 kg/ha) | Herbicidal rating SAGPY ([6]; rate 0.1250 kg/ha) | Herbicidal rating SAGPY ([6]; rate 0.2500 kg/ha)
9.0: Preemergence herbicidal rating ABUTH ([2]; rate 0.0625 kg/ha) | Preemergence herbicidal rating ABUTH ([2]; rate 0.1250 kg/ha) | Preemergence herbicidal rating ABUTH ([2]; rate 0.2500 kg/ha)
7.5: Postemergence herbicidal rating ZEAMX ([1]; Rate 0.0630 kg/ha)
5.5: Postemergence herbicidal rating ZEAMX ([1]; Rate 0.0158 kg/ha) | Postemergence herbicidal rating ZEAMX ([1]; Rate 0.0315 kg/ha)

Cn1c(C(F)(F)F)cc(=O)n(-c2cc(N=C3NC(=O)CS3)c(Cl)cc2F)c1=O [Compound 39, 3-{4-Chloro-2-fluoro-5-[(4-oxo-2-thiazolidinylidene)amino]phenyl}-1-methyl-6-(trifluoromethyl)-2,4(1H,3H)-pyrimidinedione]
3.0: Postemergence herbicidal rating ZEAMX ([1]; Rate 0.0158 kg/ha) | Postemergence herbicidal rating ZEAMX ([1]; Rate 0.0315 kg/ha) | Postemergence herbicidal rating ZEAMX ([1]; Rate 0.0630 kg/ha)
6.0: Preemergence herbicidal rating AMBEL ([3]; rate 0.1250 kg/ha)
1.0: Preemergence herbicidal rating ABUTH ([2]; rate 0.0625 kg/ha)
4.0: Herbicidal rating SAGPY ([6]; rate 0.2500 kg/ha)
9.0: Preemergence herbicidal rating ABUTH ([2]; rate 0.1250 kg/ha) | Preemergence herbicidal rating ABUTH ([2]; rate 0.2500 kg/ha) | Herbicidal rating MOOVA ([5]; rate 0.0313 kg/ha) | Herbicidal rating MOOVA ([5]; rate 0.0625 kg/ha) | Herbicidal rating MOOVA ([5]; rate 0.1250 kg/ha) | Herbicidal rating MOOVA ([5]; rate 0.2500 kg/ha)
7.0: Preemergence herbicidal rating AMBEL ([3]; rate 0.2500 kg/ha) | Preemergence herbicidal rating GLXMAW ([4]; rate 0.2500 kg/ha)
5.0: Preemergence herbicidal rating GLXMAW ([4]; rate 0.1250 kg/ha)
0.0: Preemergence herbicidal rating ABUTH ([2]; rate 0.0156 kg/ha) | Preemergence herbicidal rating ABUTH ([2]; rate 0.0313 kg/ha) | Preemergence herbicidal rating AMBEL ([3]; rate 0.0156 kg/ha) | Preemergence herbicidal rating AMBEL ([3]; rate 0.0313 kg/ha) | Preemergence herbicidal rating AMBEL ([3]; rate 0.0625 kg/ha) | Preemergence herbicidal rating GLXMAW ([4]; rate 0.0156 kg/ha) | Preemergence herbicidal rating GLXMAW ([4]; rate 0.0313 kg/ha) | Preemergence herbicidal rating GLXMAW ([4]; rate 0.0625 kg/ha) | Herbicidal rating SAGPY ([6]; rate 0.0313 kg/ha) | Herbicidal rating SAGPY ([6]; rate 0.0625 kg/ha) | Herbicidal rating SAGPY ([6]; rate 0.1250 kg/ha)
